Test results published in patent EP0394553A2, “Use of fluorine containing pyridone carboxylic acid derivatives for preparing a medicament for the treatment of HIV infections” (DAIICHI PHARMACEUTICAL CO., LTD., priority 1989, dated 1990).
Like-named read-outs stand apart in the source and are kept apart here.

System: HIV (LAV 1)
Assay: microbe, parasite or virus in culture
Conditions: for Viable cell count / Viral antigen-positive cell percentage: 4-day addition; for viability at 1 µg/mL / viability at 2.5 µg/mL / viability at 5 µg/mL / viability at 10 µg/mL: Human immunodeficiency virus 1, CCRF-CEM
In short: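 CEM cells were infected with HIV LAV 1 at MOI 0.05 and cultured with test substance at 10, 5, 2.5 or 1 mcg/ml, with medium exchanged periodically up to 30 days. Viable cell count and percentage were measured by trypan blue, and antigen-positive cells by immunofluorescence with anti-HIV antiserum, at 4–30 days. Values are means of two wells.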

## CCn1cc(C(=O)O)c(=O)c2cc(F)c(N3CCNCC3)cc21 [NFLX, 1-ethyl-6-fluoro-1,4-dihydro-4-oxo-7-(1-piperazinyl)-3-quinolinecarboxylic acid]
1 mcg/ml, after 4 days
  Viable cell count: 230 × 10⁴ cells/ml
  Viral antigen-positive cell percentage: 88%
1 mcg/ml, after 7 days
  Viable cell count: 52 × 10⁴ cells/ml
  Viral antigen-positive cell percentage: 75%
1 mcg/ml, after 10 days
  Viable cell count: 26 × 10⁴ cells/ml
1 mcg/ml, after 20 days
  Viable cell count: 0 × 10⁴ cells/ml
1 mcg/ml, after 30 days
  Viable cell count: 0 × 10⁴ cells/ml
2.5 mcg/ml, after 4 days
  Viable cell count: 240 × 10⁴ cells/ml
  Viral antigen-positive cell percentage: 93%
2.5 mcg/ml, after 7 days
  Viable cell count: 59 × 10⁴ cells/ml
  Viral antigen-positive cell percentage: 55%
2.5 mcg/ml, after 10 days
  Viable cell count: 40 × 10⁴ cells/ml
2.5 mcg/ml, after 20 days
  Viable cell count: 2 × 10⁴ cells/ml
2.5 mcg/ml, after 30 days
  Viable cell count: 70 × 10⁴ cells/ml
  Viral antigen-positive cell percentage: ≦1%
5 mcg/ml, after 4 days
  Viable cell count: 230 × 10⁴ cells/ml
  Viral antigen-positive cell percentage: 83%
5 mcg/ml, after 7 days
  Viable cell count: 84 × 10⁴ cells/ml
  Viral antigen-positive cell percentage: 65%
5 mcg/ml, after 10 days
  Viable cell count: 86 × 10⁴ cells/ml
5 mcg/ml, after 20 days
  Viable cell count: 28 × 10⁴ cells/ml
5 mcg/ml, after 30 days
  Viable cell count: 330 × 10⁴ cells/ml
  Viral antigen-positive cell percentage: ≦1%
10 mcg/ml, after 4 days
  Viable cell count: 180 × 10⁴ cells/ml
  Viral antigen-positive cell percentage: 92%
10 mcg/ml, after 7 days
  Viable cell count: 60 × 10⁴ cells/ml
  Viral antigen-positive cell percentage: 63%
10 mcg/ml, after 10 days
  Viable cell count: 250 × 10⁴ cells/ml
  Viral antigen-positive cell percentage: 50%
10 mcg/ml, after 20 days
  Viable cell count: 370 × 10⁴ cells/ml
  Viral antigen-positive cell percentage: 4%
10 mcg/ml, after 30 days
  Viable cell count: 400 × 10⁴ cells/ml
  Viral antigen-positive cell percentage: ≦1%
96 h, read-out: Viable cell percentage, 1 mcg/ml, 4-day addition, after 4 days
  viability at 1 µg/mL: 94%
96 h, read-out: Viable cell percentage, 2.5 mcg/ml, 4-day addition, after 4 days
  viability at 2.5 µg/mL: 94%
96 h, read-out: Viable cell percentage, 5 mcg/ml, 4-day addition, after 4 days
  viability at 5 µg/mL: 94%
96 h, read-out: Viable cell percentage, 10 mcg/ml, 4-day addition, after 4 days
  viability at 10 µg/mL: 92%
read-out: Viable cell percentage, 1 mcg/ml, 4-day addition, after 7 days
  viability at 1 µg/mL: 59%
read-out: Viable cell percentage, 1 mcg/ml, 4-day addition, after 10 days
  viability at 1 µg/mL: 30%
read-out: Viable cell percentage, 1 mcg/ml, 4-day addition, after 20 days
  viability at 1 µg/mL: 0%
read-out: Viable cell percentage, 1 mcg/ml, 4-day addition, after 30 days
  viability at 1 µg/mL: 0%
read-out: Viable cell percentage, 2.5 mcg/ml, 4-day addition, after 7 days
  viability at 2.5 µg/mL: 67%
read-out: Viable cell percentage, 2.5 mcg/ml, 4-day addition, after 10 days
  viability at 2.5 µg/mL: 47%
read-out: Viable cell percentage, 2.5 mcg/ml, 4-day addition, after 20 days
  viability at 2.5 µg/mL: 33%
read-out: Viable cell percentage, 2.5 mcg/ml, 4-day addition, after 30 days
  viability at 2.5 µg/mL: 96%
read-out: Viable cell percentage, 5 mcg/ml, 4-day addition, after 7 days
  viability at 5 µg/mL: 67%
read-out: Viable cell percentage, 5 mcg/ml, 4-day addition, after 10 days
  viability at 5 µg/mL: 61%
read-out: Viable cell percentage, 5 mcg/ml, 4-day addition, after 20 days
  viability at 5 µg/mL: 81%
read-out: Viable cell percentage, 5 mcg/ml, 4-day addition, after 30 days
  viability at 5 µg/mL: 95%
read-out: Viable cell percentage, 10 mcg/ml, 4-day addition, after 7 days
  viability at 10 µg/mL: 71%
read-out: Viable cell percentage, 10 mcg/ml, 4-day addition, after 10 days
  viability at 10 µg/mL: 91%
read-out: Viable cell percentage, 10 mcg/ml, 4-day addition, after 20 days
  viability at 10 µg/mL: 97%
read-out: Viable cell percentage, 10 mcg/ml, 4-day addition, after 30 days
  viability at 10 µg/mL: 94%
